Experimental data taken from PubChem BioAssay AID200 (DTP/NCI, 2004).
“And” between values parts separate entries of the source, which are not always exact repeats. Identical values can stand only once. Toxic doses and inconclusive results are not listed. How the source made its calls: active means survival T/C of 150% or more; inactive means T/C below 125% in these data. Where a SMILES comes first, the peptide text is derived from it.

Test system: B6C3F1 mice, B16 melanoma ip, median survival T/C
Experiment: NCI In Vivo Anticancer Drug Screen. Data for tumor model B16 Melanoma (intraperitoneal) in B6C3F1 mice
Settings: endpoint: median survival time, higher = longer survival
Summary of the method: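 Transplantable tumor in mice; treated vs vehicle control groups; survival or tumor size measured; value = T/C ratio.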

[1] = dose: 50.0 mg/kg/injection, schedule: Q01DX009 (ip), vehicle: saline with Tween-80
[2] = dose: 100.0 mg/kg/injection, schedule: Q01DX009 (ip), vehicle: saline with Tween-80
[3] = dose: 200.0 mg/kg/injection, schedule: Q01DX009 (ip), vehicle: saline with Tween-80
[4] = dose: 400.0 mg/kg/injection, schedule: Q01DX009 (ip), vehicle: saline with Tween-80
[5] = dose: 25.0 mg/kg/injection, schedule: Q01DX009 (ip), vehicle: saline with Tween-80
[6] = dose: 50.0 mg/kg/injection, schedule: Q01DX009 (ip), vehicle: saline
[7] = dose: 100.0 mg/kg/injection, schedule: Q01DX009 (ip), vehicle: saline
[8] = dose: 200.0 mg/kg/injection, schedule: Q01DX009 (ip), vehicle: saline
[9] = dose: 400.0 mg/kg/injection, schedule: Q01DX009 (ip), vehicle: saline
[10] = dose: 25.0 mg/kg/injection, schedule: Q01DX009 (ip), vehicle: distilled water + Tween-80
[11] = dose: 100.0 mg/kg/injection, schedule: Q01DX009 (ip), vehicle: distilled water + Tween-80

Measured: T/C

CC[C@@]1(O)C[C@H](OC2CC(N(C)C)C(OC3CC(O)C(OC4CCC(=O)C(C)O4)C(C)O3)C(C)O2)c2c(cc3c(c2O)C(=O)c2c(O)ccc(O)c2C3=O)[C@H]1C(=O)OC (some centres undefined)
inactive: dose: 0.25 mg/kg/injection, schedule: Q01DX009 (ip), vehicle: water 100 % of control | dose: 0.5 mg/kg/injection, schedule: Q01DX009 (ip), vehicle: water 120 % of control
active: dose: 1.0 mg/kg/injection, schedule: Q01DX009 (ip), vehicle: water 156 % of control

CN=C(N)N/N=C(\C)c1ccc2c(c1)Cc1cc(/C(C)=N/NC(N)=NC)ccc1-2
inactive: dose: 0.75 mg/kg/injection, schedule: Q01DX009 (ip), vehicle: saline with Tween-80 97 % of control | dose: 1.5 mg/kg/injection, schedule: Q01DX009 (ip), vehicle: saline with Tween-80 101 % of control

COc1ccc2c(c1[N+](=O)[O-])CC[C@@H]1[C@@H]2CC[C@]2(C)C(=O)CC[C@@H]12
inactive: [1] 94 % of control and 95 % of control | [2] 91 % of control and 108 % of control | [3] 90 % of control | [4] 91 % of control | dose: 800.0 mg/kg/injection, schedule: Q01DX009 (ip), vehicle: saline with Tween-80 91 % of control

CC[C@@]1(O)C[C@H](OC2CC(N(C)C)C(OC3CC(O)C(O[C@@H]4O[C@@H](C)C(=O)C=C4N)C(C)O3)C(C)O2)c2c(cc3c(c2O)C(=O)c2c(O)ccc(O)c2C3=O)[C@H]1C(=O)OC (some centres undefined)
inactive: dose: 0.02 mg/kg/injection, schedule: Q01DX001 (ip), vehicle: suspension in saline 102 % of control | dose: 0.05 mg/kg/injection, schedule: Q01DX001 (ip), vehicle: suspension in saline 111 % of control | dose: 0.1 mg/kg/injection, schedule: Q01DX001 (ip), vehicle: suspension in saline 111 % of control | dose: 0.19 mg/kg/injection, schedule: Q01DX009 (ip), vehicle: saline 121 % of control | dose: 0.2 mg/kg/injection, schedule: Q01DX001 (ip), vehicle: suspension in saline 116 % of control | dose: 0.4 mg/kg/injection, schedule: Q01DX001 (ip), vehicle: suspension in saline 121 % of control | dose: 0.8 mg/kg/injection, schedule: Q01DX001 (ip), vehicle: suspension in saline 121 % of control
active: dose: 0.75 mg/kg/injection, schedule: Q01DX009 (ip), vehicle: saline 153 % of control | dose: 1.5 mg/kg/injection, schedule: Q01DX009 (ip), vehicle: saline 173 % of control | dose: 3.0 mg/kg/injection, schedule: Q01DX009 (ip), vehicle: saline 179 % of control | dose: 3.2 mg/kg/injection, schedule: Q01DX001 (ip), vehicle: suspension in saline 152 % of control

CCCCCCNc1nc(NCCCCCC)c2[nH]c(NCCCCCC)nc2n1
inactive: [5] 107 % of control | [1] 101 % of control | [2] 96 % of control | [3] 91 % of control

OCC[N+]12CN3CN(CN(C3)C1)C2
inactive: dose: 25.0 mg/kg/injection, schedule: Q01DX009 (ip), vehicle: saline 101 % of control | [6] 109 % of control | [7] 103 % of control | [8] 108 % of control | [9] 108 % of control

COC1C(CO)OC(n2c3c(Cl)cccc3c3c4c(c5c6cccc(Cl)c6[nH]c5c32)C(=O)NC4=O)C(O)C1O (centres undefined)
active: [10] 150 % of control | [11] 172 % of control and 173 % of control | dose: 200.0 mg/kg/injection, schedule: Q01DX009 (ip), vehicle: distilled water + Tween-80 161 % of control

CCCC(NC(=O)CNC(=O)OCc1ccccc1)C(=O)O (centres undefined) (HELM PEPTIDE1{[O=C(OCc1ccccc1)[*:2]].G.[CCCC(N[*:1])C(=O)O]}$$$$V2.0)
inactive: dose: 100.0 mg/kg/injection, schedule: Q01DX009 (ip), vehicle: Klucel (hydroxypropylcellulose) (HPC) 104 % of control | dose: 200.0 mg/kg/injection, schedule: Q01DX009 (ip), vehicle: Klucel (hydroxypropylcellulose) (HPC) 92 % of control

CN(C)CC1CCCC(CN(C)C)C1=O (centres undefined)
inactive: [6] 103 % of control | [7] 97 % of control | [8] 100 % of control

C=C(OC)C(Nc1cc(OC)c(OC)cc1C(=O)OC1CC(O[C@@H]2C(=O)C(NC(=O)OC)=C3/C(=C\CSSSC)[C@]2(O)C#C/C=C\C#C[C@@H]3OC2OC(C)C(NOC3CC(O)C(SC)C(C)O3)C(O)C2OC2CC(OC)C(NCCC)CO2)OC(C)C1O)OC (some centres undefined)
inactive: dose: 2.5 nanograms/kg/injection, schedule: Q01DX009 (ip), vehicle: saline + alcohol 119 % of control | dose: 4.0 nanograms/kg/injection, schedule: Q01DX009 (ip), vehicle: saline + alcohol 93 % of control | dose: 5.0 nanograms/kg/injection, schedule: Q01DX009 (ip), vehicle: saline + alcohol 109 % of control | dose: 14.0 nanograms/kg/injection, schedule: Q01DX009 (ip), vehicle: saline + alcohol 102 % of control | dose: 24.0 nanograms/kg/injection, schedule: Q01DX009 (ip), vehicle: saline + alcohol 103 % of control | dose: 66.67 nanograms/kg/injection, schedule: Q01DX009 (ip), vehicle: saline + alcohol 96 % of control | dose: 111.11 nanograms/kg/injection, schedule: Q01DX009 (ip), vehicle: saline + alcohol 97 % of control
219 % of control and 101 % of control: dose: 40.0 nanograms/kg/injection, schedule: Q01DX009 (ip), vehicle: saline + alcohol
active: dose: 0.16 micrograms/kg/injection, schedule: Q01DX009 (ip), vehicle: saline + alcohol 191 % of control | dose: 0.32 micrograms/kg/injection, schedule: Q01DX009 (ip), vehicle: saline + alcohol 162 % of control | dose: 0.63 micrograms/kg/injection, schedule: Q01DX009 (ip), vehicle: saline + alcohol 170 % of control | dose: 20.0 nanograms/kg/injection, schedule: Q01DX009 (ip), vehicle: saline + alcohol 155 % of control

CCCCCC(O)C1C(=O)OC(C)C(O)/C=C/C=C/C=C/C=C/C=C(\C)C(O)C(O)C(O)CC(O)CC(O)CC(O)CC(O)CC1O (centres undefined)
inactive: dose: 0.5 mg/kg/injection, schedule: Q01DX009 (ip), vehicle: other 98 % of control | dose: 1.0 mg/kg/injection, schedule: Q01DX009 (ip), vehicle: other 119 % of control | dose: 1.56 mg/kg/injection, schedule: Q01DX009 (ip), vehicle: saline 102 % of control | dose: 3.12 mg/kg/injection, schedule: Q01DX009 (ip), vehicle: saline 88 % of control
active: dose: 4.0 mg/kg/injection, schedule: Q01DX009 (ip), vehicle: other 169 % of control | dose: 8.0 mg/kg/injection, schedule: Q01DX009 (ip), vehicle: other 166 % of control

CC(=O)OCC1(C)NC(=O)c2ccccc2O1 (centres undefined)
inactive: dose: 12.5 mg/kg/injection, schedule: Q01DX009 (ip), vehicle: saline with Tween-80 88 % of control and 103 % of control | [5] 114 % of control and 103 % of control | [1] 95 % of control and 100 % of control | [2] 92 % of control and 93 % of control | [3] 90 % of control | [4] 86 % of control

CNC(=O)OCc1c(COC(=O)NC)c(-c2ccc(Cl)c(Cl)c2)n2c1Cc1ccccc1C2
inactive: [11] 92 % of control
active: [10] 165 % of control | dose: 50.0 mg/kg/injection, schedule: Q01DX009 (ip), vehicle: distilled water + Tween-80 194 % of control and 203 % of control

CC(C)C1C(=O)N2CCCC2C2(O)OC(NC(=O)C3C=C4c5cccc6[nH]cc(c56)CC4N(C)C3)(C(C)C)C(=O)N12 (centres undefined)
inactive: dose: 8.0 mg/kg/injection, schedule: Q01DX009 (ip), vehicle: Klucel (hydroxypropylcellulose) (HPC) 106 % of control | dose: 16.0 mg/kg/injection, schedule: Q01DX009 (ip), vehicle: Klucel (hydroxypropylcellulose) (HPC) 109 % of control | dose: 32.0 mg/kg/injection, schedule: Q01DX009 (ip), vehicle: Klucel (hydroxypropylcellulose) (HPC) 117 % of control | dose: 64.0 mg/kg/injection, schedule: Q01DX009 (ip), vehicle: Klucel (hydroxypropylcellulose) (HPC) 105 % of control

CSCCC(NC(=O)CN)C(=O)O (centres undefined)
inactive: [7] 87 % of control | [8] 90 % of control | [9] 91 % of control

CC1=CC(=NN=c2cc(C)n([O-])c(C)c2)C=C(C)[N+]1=O
inactive: dose: 12.5 mg/kg/injection, schedule: Q01DX009 (ip), vehicle: suspension in saline 91 % of control | [5] 107 % of control | dose: 25.0 mg/kg/injection, schedule: Q01DX009 (ip), vehicle: suspension in saline 99 % of control | [1] 123 % of control | dose: 50.0 mg/kg/injection, schedule: Q01DX009 (ip), vehicle: suspension in saline 95 % of control | [2] 121 % of control | dose: 100.0 mg/kg/injection, schedule: Q01DX009 (ip), vehicle: suspension in saline 108 % of control
